Target: T1, Recombinant human LTC4 synthase (Homo sapiens, UniProt Q16873)
T1 construct: made in house; host or cells: Pichia pastoris ('Piccia pastoralis' [sic])
T1 sequence (Q16873 1-150): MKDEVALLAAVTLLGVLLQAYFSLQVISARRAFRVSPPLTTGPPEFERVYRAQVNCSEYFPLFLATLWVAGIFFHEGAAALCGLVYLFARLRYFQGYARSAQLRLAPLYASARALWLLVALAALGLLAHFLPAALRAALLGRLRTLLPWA
Test: LTC4 synthase in vitro assay (LTA4 to LTC4, HTRF detection)
Type: biochemical
Details: for inhibition at 3 µM: compound concentration 3 μM; for inhibition at 10 µM: 5 min, total concentration of title compound in the assay 10 μM
Method in brief: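 Purified recombinant human LTC4 synthase expressed in Pichia (0.5 μg/mL total protein) was preincubated with inhibitor at 10 μM final for 10 min at room temperature in PBS pH 7.4 with 5 mM GSH. LTA4 was then added at 2.5 μM final, and after 5 min at room temperature LTC4 was detected by HTRF.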

Row | Compound | IC50 | inhibition at 10 µM | inhibition at 3 µM
1 | CN(c1ccc(Cl)cc1)c1ccc(C(=O)c2ccc(NC(=O)c3ccc(OC(F)(F)F)cc3)c(C(=O)O)c2)nc1 [3:11, 5-{5-[(4-Chlorophenyl)(methyl)amino]picolinoyl}-2-(4-trifluoromethoxy-benzamido)benzoic acid] | 44 nM |  | 
2 | CN(c1ccc(Cl)cc1)c1ccc(C(=O)c2ccc(NC(=O)c3ccccc3OC(F)(F)F)c(C(=O)O)c2)nc1 [3:12, 5-{5-[(4-Chlorophenyl)(methyl)amino]picolinoyl}-2-(2-trifluoromethoxy-benzamido)benzoic acid] | 104 nM |  | 
3 | CN(c1ccc(Cl)cc1)c1ccc(C(=O)c2ccc(NC(=O)c3ccc(S(C)(=O)=O)cc3)c(C(=O)O)c2)nc1 [3:14, 5-{5-[(4-Chlorophenyl)(methyl)amino]picolinoyl}-2-(4-methylsulfonyl-benzamido)benzoic acid] | 67 nM |  | 
4 | CN(c1ccc(Cl)cc1)c1ccc(C(=O)c2ccc(NC(=O)c3ccc(S(=O)(=O)N(C)C)cc3)c(C(=O)O)c2)nc1 [3:15, 5-{5-[(4-Chlorophenyl)(methyl)amino]picolinoyl}-2-(4-dimethylsulfamoyl-benzamido)benzoic acid] | 41 nM |  | 
5 | COc1cc(C(=O)Nc2ccc(C(=O)c3ccc(N(C)c4ccc(Cl)cc4)cn3)cc2C(=O)O)cc(OC)c1OC [3:16, 5-{5-[(4-Chlorophenyl)(methyl)amino]picolinoyl}-2-(3,4,5-trimethoxybenz-amido)benzoic acid] | 157 nM |  | 
6 | CN(c1ccc(Cl)cc1)c1ccc(C(=O)c2ccc(NC(=O)c3cccc4c3OC(F)(F)O4)c(C(=O)O)c2)nc1 [3:18, 5-{5-[(4-Chlorophenyl)(methyl)amino]picolinoyl}-2-[2,3-(difluoromethylene-dioxy)benzamido]benzoic acid] | 112 nM |  | 
7 | CN(c1ccc(Cl)cc1)c1ccc(C(=O)c2ccc(NC(=O)c3ccccc3C#N)c(C(=O)O)c2)nc1 [3:20, 5-{5-[(4-Chlorophenyl)(methyl)amino]picolinoyl}-2-(2-cyanobenzamido)benzoic acid] | 3000 nM |  | 
8 | COc1cccc(C(=O)Nc2ccc(C(=O)c3ccc(N(C)c4ccc(Cl)cc4)cn3)cc2C(=O)O)c1OC [3:27, 5-{5-[(4-Chlorophenyl)(methyl)amino]picolinoyl}-2-(2,3-dimethoxybenzamido)-benzoic acid] | 40 nM |  | 
9 | CN(c1ccc(Cl)cc1)c1ccc(C(=O)c2ccc(NC(=O)c3cccc4c3OCO4)c(C(=O)O)c2)nc1 [3:28, 5-{5-[(4-Chlorophenyl)(methyl)amino]picolinoyl}-2-(2,3-methylenedioxy-benzamido)benzoic acid] | 50 nM |  | 
10 | COc1c(F)c(F)cc(C(=O)Nc2ccc(C(=O)c3ccc(N(C)c4ccc(Cl)cc4)cn3)cc2C(=O)O)c1F [3:31, 5-{5-[(4-Chlorophenyl)(methyl)amino]picolinoyl}-2-(2,4,5-trifluoro-3-methoxy-benzamido)benzoic acid] | 61 nM |  | 
11 | COc1ccc(C(=O)Nc2ccc(C(=O)c3ccc(N(C)c4ccc(Cl)cc4)cn3)cc2C(=O)O)c(C)c1 [3:32, 5-{5-[(4-Chlorophenyl)(methyl)amino]picolinoyl}-2-(4-methoxy-2-methylbenz-amido)benzoic acid] | 42 nM |  | 
12 | COc1cccc(C(=O)Nc2ccc(C(=O)c3ccc(N(C)c4ccccc4)cn3)cc2C(=O)O)c1 [3:33, 2-(3-Methoxybenzamido)-5-{5-[(methyl)(phenyl)amino]picolinoyl}benzoic acid] | 226 nM |  | 
13 | COc1ccc(C(=O)Nc2ccc(C(=O)c3ccc(N(C)c4ccccc4)cn3)cc2C(=O)O)c(OC)c1 [3:34, 2-(2,4-Dimethoxybenzamido)-5-{5-[(methyl)(phenyl)amino]picolinoyl}benzoic acid] | 163 nM |  | 
14 | COc1cc(F)c(C(=O)Nc2ccc(C(=O)c3ccc(N(C)c4ccc(Cl)cc4)cn3)cc2C(=O)O)c(F)c1 [3:35, 5-{5-[(4-Chlorophenyl)(methyl)amino]picolinoyl}-2-(2,6-difluoro-4-methoxy-benzamido)benzoic acid] | 73 nM |  | 
15 | COc1ccc(C(=O)Nc2ccc(C(=O)c3ccc(N(C)c4ccc(Cl)cc4)cn3)cc2C(=O)O)c(Cl)c1OC [3:36, 2-(2-Chloro-3,4-dimethoxybenzamido)-5-{5-[(4-chlorophenyl)(methyl)amino]-picolinoyl}benzoic acid] | 39 nM |  | 
16 | CN(c1ccc(Cl)cc1)c1ccc(C(=O)c2ccc(NC(=O)c3cccc(Br)c3)c(C(=O)O)c2)nc1 [3:38, 2-(3-Bromobenzamido)-5-{5-[(4-chlorophenyl)(methyl)amino]picolinoyl}benzoic acid] | 68 nM |  | 
17 | CN(c1ccc(Cl)cc1)c1ccc(C(=O)c2ccc(NC(=O)c3cccc(C(F)(F)F)c3)c(C(=O)O)c2)nc1 [3:39, 5-{5-[(4-chlorophenyl)(methyl)amino]picolinoyl}-2-(3-trifluoromethylbenzamido)-benzoic acid] | 91 nM |  | 
18 | CN(c1ccc(Cl)cc1)c1ccc(C(=O)c2ccc(NS(=O)(=O)c3ccccc3)c(C(=O)O)c2)nc1 [4:1, 5-{5-[(4-Chlorophenyl)(methyl)amino]picolinoyl}-2-(phenylsulfonamido)benzoic acid] | 39 nM |  | 100%
19 | CCCCOc1ccc(S(=O)(=O)Nc2ccc(C(=O)c3ccc(N(C)c4ccc(Cl)cc4)cn3)cc2C(=O)O)cc1 [4:2, 2-(4-Butoxyphenylsulfonamido)-5-{5-[(4-chlorophenyl)(methyl)amino]picolinoyl}-benzoic acid] | 23 nM |  | 100%
20 | CN(c1ccc(Cl)cc1)c1ccc(C(=O)c2ccc(NS(=O)(=O)c3cccs3)c(C(=O)O)c2)nc1 [4:3, 5-{5-[(4-Chlorophenyl)(methyl)amino]picolinoyl}-2-(2-thienylsulfonamido)benzoic acid] | 40 nM | 99% | 
21 | CN(c1ccc(Cl)cc1)c1ccc(C(=O)c2ccc(NS(=O)(=O)c3ccc(C(F)(F)F)cc3)c(C(=O)O)c2)nc1 [4:4, 5-{5-[(4-Chlorophenyl)(methyl)amino]picolinoyl}-2-(4-trifluoromethylphenylsulfon-amido)benzoic acid] | 43 nM | 100% | 

Further compounds by falling IC50, results first:

Row | IC50 | inhibition at 10 µM | Compound | inhibition at 3 µM
22 | 38 nM |  | CN(c1ccc(Cl)cc1)c1ccc(C(=O)c2ccc(NC(=O)c3ccc4c(c3)OC(F)(F)O4)c(C(=O)O)c2)nc1 [3:17, 5-{5-[(4-Chlorophenyl)(methyl)amino]picolinoyl}-2-[3,4-(difluoromethylene-dioxy)benzamido]benzoic acid] | 
23 | 37 nM |  | COc1ccc(C(=O)Nc2ccc(C(=O)c3ccc(N(C)c4ccc(Cl)cc4)cn3)cc2C(=O)O)cc1OC [3:26, 5-{5-[(4-Chlorophenyl)(methyl)amino]picolinoyl}-2-(3,4-dimethoxybenzamido)-benzoic acid] | 
24 | 33 nM |  | COc1cccc(C(=O)Nc2ccc(C(=O)c3ccc(N(CC4CC4)c4ccc(Cl)cc4)cn3)cc2C(=O)O)c1 [3:23, 5-{5-[(4-Chlorophenyl)(cyclopropylmethyl)amino]picolinoyl}-2-(3-methoxy-benzamido)benzoic acid] | 
25 | 26 nM |  | COc1cccc(F)c1C(=O)Nc1ccc(C(=O)c2ccc(N(C)c3ccc(Cl)cc3)cn2)cc1C(=O)O [3:30, 5-{5-[(4-Chlorophenyl)(methyl)amino]picolinoyl}-2-(2-fluoro-6-methoxybenz-amido)benzoic acid] | 
26 | 25 nM |  | COc1ccc(OC)c(C(=O)Nc2ccc(C(=O)c3ccc(N(C)c4ccc(Cl)cc4)cn3)cc2C(=O)O)c1 [3:21, 5-{5-[(4-Chlorophenyl)(methyl)amino]picolinoyl}-2-(2,5-dimethoxybenzamido)-benzoic acid] | 
27 | 24 nM |  | COc1cccc(C(=O)Nc2ccc(C(=O)c3ccc(N(C)c4ccc(Cl)cc4)cn3)cc2C(=O)O)c1 [3:10, 5-{5-[(4-Chlorophenyl)(methyl)amino]picolinoyl}-2-(3-methoxybenzamido)-benzoic acid] | 
28 | 23 nM |  | COc1ccc(C(=O)Nc2ccc(C(=O)c3ccc(N(C)c4ccc(Cl)cc4)cn3)cc2C(=O)O)c(OC)c1 [3:13, 5-{5-[(4-Chlorophenyl)(methyl)amino]picolinoyl}-2-(2,4-dimethoxy-benzamido)benzoic acid] | 
29 | 21 nM |  | COc1cccc(C(=O)Nc2ccc(C(=O)c3ccc(N(C)Cc4ccc(Cl)cc4)cn3)cc2C(=O)O)c1 [3:37, 5-{5-[(4-Chlorobenzyl)(methyl)amino]picolinoyl}-2-(3-methoxybenzamido)-benzoic acid] | 
30 | 17 nM |  | CN(c1ccc(Cl)cc1)c1ccc(C(=O)c2ccc(NC(=O)c3ccc4c(c3)OCCO4)c(C(=O)O)c2)nc1 [3:19, 5-{5-[(4-Chlorophenyl)(methyl)amino]picolinoyl}-2-(3,4-ethylenedioxy-benzamido)benzoic acid] | 
31 | 16 nM |  | COc1ccc(C(=O)Nc2ccc(C(=O)c3ccc(N(CC4CC4)c4ccc(Cl)cc4)cn3)cc2C(=O)O)c(OC)c1 [3:22, 5-{5-[(4-Chlorophenyl)(cyclopropylmethyl)amino]picolinoyl}-2-(2,4-dimethoxy-benzamido)benzoic acid] | 
32 | 16 nM |  | O=C(Nc1ccc(C(=O)c2ccc(N(CC3CC3)c3ccc(Cl)cc3)cn2)cc1C(=O)O)c1ccc2c(c1)OC(F)(F)O2 [3:24, 5-{5-[(4-Chlorophenyl)(cyclopropylmethyl)amino]picolinoyl}-2-[3,4-(difluoromethylenedioxy)benzamido]benzoic acid] | 
33 | 12 nM |  | COc1cc(OC)cc(C(=O)Nc2ccc(C(=O)c3ccc(N(C)c4ccc(Cl)cc4)cn3)cc2C(=O)O)c1 [3:29, 5-{5-[(4-Chlorophenyl)(methyl)amino]picolinoyl}-2-(3,5-dimethoxybenzamido)-benzoic acid] | 
34 | 11 nM |  | O=C(Nc1ccc(C(=O)c2ccc(N(CC3CC3)c3ccc(Cl)cc3)cn2)cc1C(=O)O)c1ccc2c(c1)OCCO2 [3:25, 5-{5-[(4-Chlorophenyl)(cyclopropylmethyl)amino]picolinoyl}-2-(3,4-ethylene-dioxybenzamido)benzoic acid] | 
